Results: PMC9896003, “Discovery of a novel, liver-targeted thyroid hormone receptor-β agonist, CS271011, in the treatment of lipid metabolism disorders” (Frontiers in Endocrinology, 2023)
Like-named read-outs stand apart in the source and are kept apart here.

Tests used:
[1] = Serum pharmacokinetic study, single oral gavage; format: in vivo, C57BL/6J mice; conditions: for AUC(0-inf) / AUC(0-t) / Cmax / Tmax / half-life / MRT last: male, mouse, serum, po, orally once, normal C57BL/6J mice; for MRT last: read-out: MRT(0-t)
Method: Then, each group was subdivided into three groups for blood extraction: Group 1, sample collection after 0.5 hours and 2 hours of treatment (n=3); Group 2, sample collection after 1 hour and 4 hours of treatment (n=3); and Group 3, sample collection after 8 hours and 24 hours of treatment (n=3). Approximately 100 μl of blood was collected from the orbit and centrifuged (3500 g, 15 min, 4°C) to extract serum and placed on ice (0°C), and 20 μl of serum was added to 200 μl of extractant (containing 200 ng/ml methanol), which was assessed by liquid chromatography-tandem mass spectrometry (LC−MS/MS) procedures. […]

[2] = Tissue distribution study (heart, liver, kidney, blood) by LC-MS/MS; format: in vivo, C57BL/6J mice; conditions: for Concentration, Blood / Concentration, Heart / Kp at 24 h: 24h; for Concentration, Blood / Concentration, Heart: mean; for Kp at 2 h / Kp at 4 h / Kp at 24 h: C57BL/6J, mouse
Method: To detect the tissue distribution of drugs, the heart, liver, and kidney of mice in Group 1, Group 2, and Group 3 were collected at 2 hours, 4 hours, and 24 hours, respectively. Then, 1 ml of 1X PBS was added for tissue homogenization. 50 μl tissue homogenate was added to 500 μl of extractant (containing 200 ng/ml methanol). The protein of tissue samples was precipitated by vortex oscillation for 5 min and centrifuged at 13,000 rpm for 10 min, and 150 μL of supernatant was collected and determined by LC−MS/MS procedures.

[3] = DIO mouse study: body weight, food intake, liver and heart weight; format: in vivo; conditions: DIO mice
Method: (§1) All animal experiments were performed at Chipscreen Biosciences (Shenzhen, China) according to the National Research Council’s Guide for the Care and Use of Laboratory Animals and the Regulations of Experimental Animal Administration issued by the State Committee of Science and Technology of China and approved by Shenzhen Peking University - The Hong Kong University of Science and Technology Medical Center’s Ethics Committee for the Welfare of Laboratory Animals (approval no. 2022-988). Forty C57BL/6J mice (4-5 weeks, male) were received and raised under a standard 12-hour light/dark cycle (lights off at 7:00 pm). Thirty-five mice were fed a fat-rich diet (SYSE Bio-tech, D12492i; 60% of kcal from fat; Changzhou, China), and the other five mice were fed a control diet (Guangdong Medical Laboratory Animal Center, Foshan, China) ad libitum for 12 weeks. […] The mice from Group 2 to Group 5 were fed a high-fat diet. […] Body weight and food intake were measured once daily during treatment. All mice were sacrificed after treatment, and blood, hearts, and livers were collected for further validation.

[4] = tested on: DIO mice; assay: DIO mouse study: serum biochemical indices; format: in vivo
Method: as §1
Blood samples were collected from the orbit and placed for 30 min at room temperature and then centrifuged (3500 g, 15 min, 4°C), and the serum was collected for TG, TC, AST, and ALT tests. For the liver TG and TC tests, the right lobe of the liver was collected and weighed accurately, and then isopropanol and absolute ethanol were added at a ratio of 1:9 (weight/volume) for tissue homogenization on ice. Next, the liver sample was centrifuged (10,000 g and 2500 g, 10 min, at 4°C for liver TG and TC extraction, respectively), and the supernatant was collected for liver TG and TC assays. Tests for TC, ALT and AST were performed following the manufacturer’s instructions.

[5] = tested on: DIO mice; assay: DIO mouse study: liver TG and TC; format: in vivo, C57BL/6J mice; conditions: 3 mg/kg, 10 weeks
Method: as §1
Blood samples were collected from the orbit and placed for 30 min at room temperature and then centrifuged (3500 g, 15 min, 4°C), and the serum was collected for TG, TC, AST, and ALT tests. […]

[6] = tested on: DIO mice; assay: DIO mouse study: liver histology (H&E, Oil Red O, NAFLD activity score); format: in vivo, C57BL/6J mice; conditions: 3 mg/kg, 10 weeks
Method: All animal experiments were performed at Chipscreen Biosciences (Shenzhen, China) according to the National Research Council’s Guide for the Care and Use of Laboratory Animals and the Regulations of Experimental Animal Administration issued by the State Committee of Science and Technology of China and approved by Shenzhen Peking University - The Hong Kong University of Science and Technology Medical Center’s Ethics Committee for the Welfare of Laboratory Animals (approval no. 2022-988). Forty C57BL/6J mice (4-5 weeks, male) were received and raised under a standard 12-hour light/dark cycle (lights off at 7:00 pm). Thirty-five mice were fed a fat-rich diet (SYSE Bio-tech, D12492i; 60% of kcal from fat; Changzhou, China), and the other five mice were fed a control diet (Guangdong Medical Laboratory Animal Center, Foshan, China) ad libitum for 12 weeks. […] The mice from Group 2 to Group 5 were fed a high-fat diet. Treatments started on the thirteenth week and lasted 10 weeks, in which Groups 1 and 2 received solvent (0.2% CMC-Na), and the other groups were administered corresponding compounds orally once daily (the volume of solvent was 5 ml/kg). Body weight and food intake were measured once daily during treatment. All mice were sacrificed after treatment, and blood, hearts, and livers were collected for further validation.
After the animals were sacrificed, the left hepatic lobe was collected (approximately 100–200 mg) and fixed in 4% paraformaldehyde overnight. The liver tissue was sectioned at a thickness of 5 μm after being paraffin-embedded. Liver sections were stained with haematoxylin and eosin (H&E), and the NAFLD activity scores were determined based on the steatosis, lobular inflammation, and hepatocyte ballooning degeneration in accordance with the standard proposed by Kleiner ([17]).
To analyse the content of lipids in the liver, Oil Red O (ORO) staining of isobutyl alcohol-frozen liver sections was conducted by Wuhan Servicebio Technology Co., Ltd. (Wuhan, China). Each positive region of ORO staining was quantified for each sample using Imangepro plus 6.0 software ([…]).

[7] = tested on: DIO mice; assay: RT-PCR of hepatic genes, DIO mice; format: in vivo, C57BL/6J mice
Method: The total RNA of fresh liver tissue was extracted using TRIzol reagent (Invitrogen, Carlsbad, CA, USA), and RNA quality was measured using a Nanodrop2000 by calculating the 260/280 ratio. Based on the manufacturer’s instructions, we reverse-transcribed 5 μg of isolated RNA with a Transcriptor First Strand cDNA Synthesis Kit (Roche Diagnostics, Mannheim, Germany). Real-time PCR (RT−PCR) was conducted to measure the relative expression of genes by using SYBR Green Master (ROX) dye (Roche Diagnostics, Mannheim, Germany) and the ABI Prism 7000 Sequence Detection System (Applied Biosystems, Foster City, CA, USA). Changes in target mRNA were standardized to β-actin mRNA levels for each sample in triplicate. The 2-^△△Ct method was used to determine the relative mRNA expression levels.

[8] = tested on: DIO mice; assay: RT-PCR of myocardial energy metabolism gene mGPDH, DIO mice; format: in vivo, C57BL/6J mice
[9] = tested on: HMC; assay: Cell viability in kidney cell line HMC; format: cell-based
[10] = tested on: NRK49F; assay: Cell viability in kidney cell line NRK49F; format: cell-based
[11] = heart/blood, 10 mg/kg oral, read-out: Ratio (tissue/blood), Heart
[12] = kidney/blood, 10 mg/kg oral, read-out: Ratio (tissue/blood), Kidney
[13] = liver/blood, 10 mg/kg oral, read-out: Ratio (tissue/blood), Liver
[14] = male, heart / blood, 3 mg/kg oral, read-out: Ratio (tissue/blood), Heart
[15] = male, kidney / blood, 3 mg/kg oral, read-out: Ratio (tissue/blood), Kidney
[16] = male, liver / blood, 3 mg/kg oral, read-out: Ratio (tissue/blood), Liver
[17] = 10 weeks oral once daily, CS271011 1 and 3 mg/kg, MGL-3196 3 mg/kg
[18] = 10 weeks of treatment, CS271011 1 and 3 mg/kg, MGL-3196 3 mg/kg

CC(C)c1cc(Oc2c(Cl)cc(-n3nc(C#N)c(=O)[nH]c3=O)cc2Cl)n[nH]c1=O [MGL-3196, 2-[3,5-dichloro-4-(5-isopropyl-6-oxo-1,6-dihydropyridazin-3-yloxy)phenyl]-3,5-dio xo-2,3,4,5-tetrahydro[1,2,4]triazine-6-carbonitrile]
bioavailability in vivo, comparison at the same dosage ([1]; 3 mg/kg and 10 mg/kg oral): higher bioavailability in vivo than CS271011
AUC(0-inf) ([1]; 3mg/kg): 9470 ng·h/mL
AUC(0-t) ([1]; 3mg/kg): 9330 ng·h/mL
Cmax ([1]; 3mg/kg): 1140 ng/mL
Tmax ([1]; 3mg/kg): 2 h
half-life ([1]; 3mg/kg): 3.8 h
MRT last ([1]; 3mg/kg): 6.3 h
AUC(0-inf) ([1]; 10mg/kg): 35800 ng·h/mL
AUC(0-t) ([1]; 10mg/kg): 35600 ng·h/mL
Cmax ([1]; 10mg/kg): 4870 ng/mL
Tmax ([1]; 10mg/kg): 2 h
half-life ([1]; 10mg/kg): 3 h
MRT last ([1]; 10mg/kg): 5.8 h
tissue distribution (liver targeting) ([2]; 3 mg/kg and 10 mg/kg oral, especially 2 and 4 hours after administration): liver-targeted
Concentration, Blood ([2]; 3 mg/kg oral): 25.40 ng/g
Concentration, Heart ([2]; 3 mg/kg oral): 78.08 ng/g
Concentration, Blood ([2]; 10 mg/kg oral): 42.40 ng/g
Concentration, Heart ([2]; 10 mg/kg oral): 147.91 ng/g
Kp at 2 h [2, 11]: 0.113
Kp at 4 h [2, 11]: 0.112
Kp at 24 h [2, 11]: 3.49
Kp at 2 h [2, 12]: 0.572
Kp at 4 h [2, 12]: 0.607
Kp at 24 h [2, 12]: 0.734
Kp at 2 h [2, 13]: 4.59
Kp at 4 h [2, 13]: 4.63
Kp at 24 h [2, 13]: 4.8
Kp at 2 h [2, 14]: 0.213
Kp at 4 h [2, 14]: 0.146
Kp at 24 h [2, 14]: 3.07
Kp at 2 h [2, 15]: 0.64
Kp at 4 h [2, 15]: 0.617
Kp at 24 h [2, 15]: 1.25
Kp at 2 h [2, 16]: 6.59
Kp at 4 h [2, 16]: 6.17
Kp at 24 h [2, 16]: 3.17
liver weight and LW/BW ([3]; 10-week drug intervention): dramatically reduced
body weight [3, 17]: dramatic reduction in body weight
food intake [3, 17]: neither CS271011 nor MGL-3196 impeded food intake
Serum TG ([4]; 3 mg/kg, 10 weeks, mean ± SD (DIO control 1.25±0.38)): 0.59 ± 0.11 mmol/L
Serum TC ([4]; 3 mg/kg, 10 weeks, mean ± SD (DIO control 7.79±1.67)): 3.46 ± 1.61 mmol/L
serum ALT and AST levels ([4]; 10 weeks of treatment): no influence
serum TC vs. DIO control [4, 18]: significant reduction
serum TG vs. DIO control [4, 18]: significant reduction
hepatic TC concentration [5]: markedly reduced
hepatic TG concentration [5]: markedly reduced
NAS score [6]: equivalent efficacy
ORO staining area [6]: decreased
hepatic ballooning [6]: mitigated hepatic ballooning with a considerable effect
steatosis score [6]: decreased
hepatic expression of Abcc3 [7]: negatively regulated
hepatic expression of Csad, Slc25a30 and Tff3 (downregulated in DIO mice) [7]: rescued
hepatic expression of Cyp4a10 [7]: obviously downregulated
hepatic expression of Cyp39a1 [7]: upregulated
hepatic expression of Hsd17b6 [7]: diminished
hepatic expression of LDLR, Cyp7a1, Cyp17a1, Srebp2 and Sqle [7]: positively regulated
hepatic expression of Srebf1 [7]: strongly downregulated
mGPDH expression in the hearts of DIO mice [8]: barely affects
cell viability [9]: no effect on cell viability
cell viability [10]: no effect on cell viability
